The target of assay [1] is T1, CRAC channel (Homo sapiens, UniProt Q96D31).
T1 construct: endogenous in cells; host or cells: HEK293 (ECACC), untransfected
Put plainly: HEK Calcium Influx Assay (FLIPR), inhibition of store-operated Ca2+ entry after thapsigargin store depletion. The assay is classed as cell-based. The settings on record: 10 μM compound, HEK293 cells, read-out: % inhib. [@ 10 μM] FLIPR. In outline: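 HEK293 cells loaded with Calcium-4 dye in Ca2+-free HBS (pH 7.4), stores depleted with 2 μM thapsigargin for 10 min (100 μM EGTA); after 3 mM CaCl2 re-addition and 15 min steady-state, compounds added and FLIPR signal averaged 9.5–10 min post-dose. IC50 from 8-point 1:3.16 dilutions from 10 μM, normalised to DMSO and non-depleted wells.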

Assay [2] deals with Interleukin-2 (IL-2) production/release in Jurkat T cells. Put plainly: Jurkat IL-2 Production Assay (PHA-stimulated, IL-2 AlphaLisa). The assay is classed as cell-based. To be noted: Homo sapiens, PHA 15 μg/ml, 22 h, inhibition of IL-2 production. In outline: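 Jurkat E6-1 cells (5*10^5/well, DMEM/F12 with 10% FCS) pretreated 30 min with compound, then stimulated 22 h with 15 μg/ml PHA at 37 °C. IC50 from 8-point 1:3.16 dilution starting at 10 μM.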
On the technique in general: Alpha assays give light when donor and acceptor beads are brought close together.

Molecules are shown by their SMILES.

T1 sequence (Q96D31 whole entry): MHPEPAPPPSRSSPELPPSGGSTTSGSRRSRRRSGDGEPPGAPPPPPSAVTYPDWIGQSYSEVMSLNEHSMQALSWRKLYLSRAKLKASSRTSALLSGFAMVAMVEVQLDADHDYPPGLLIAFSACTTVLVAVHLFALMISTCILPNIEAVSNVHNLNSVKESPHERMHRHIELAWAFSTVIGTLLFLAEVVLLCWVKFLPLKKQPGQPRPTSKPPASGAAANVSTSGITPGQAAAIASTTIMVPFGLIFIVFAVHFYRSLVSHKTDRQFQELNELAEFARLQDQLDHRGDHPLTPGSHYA

For orientation: IC50 means the concentration at which inhibition is half-maximal. For the molecule `CCn1nc(C(F)(F)F)cc1N1CCc2[nH]c(-c3c(F)cccc3F)cc2C1` [Example 130, 2-(2,6-Difluoro-phenyl)-5-[2-ethyl-5-(trifluoromethyl)-2H-pyrazol-3-yl]-4,5,6,7-tetrahydro-1H-pyrrolo[3,2-c]pyridine], the inhibition at 10 µM in assay [1] is greater than 70%. In assay [2], the IC50 is less than 0.5 µM.
For `CCNS(=O)(=O)c1ccc(N2CCc3[nH]c(-c4c(F)cccc4F)cc3C2)c(C)c1` [Example 131, 4-[2-(2,6-Difluoro-phenyl)-4,5,6,7-tetrahydro-1H-pyrrolo[3,2-c]pyridin-5-yl]-N-ethyl-3-methyl-benzenesulfonic acid amide], in that order: less than 50% and 1 to 5 µM.
For `Cc1cc(N(C)S(C)(=O)=O)ccc1N1CCc2[nH]c(-c3c(F)cccc3F)cc2C1` [Example 132, N-[4-[2-(2,6-Difluoro-phenyl)-4,5,6,7-tetrahydro-1H-pyrrolo[3,2-c]pyridin-5-yl]-3-methyl-phenyl]-N-methyl-methanesulfonic acid amide], in that order: less than 50% and 1 to 5 µM.
For `Cc1sc(S(C)(=O)=O)nc1N1CCc2[nH]c(-c3c(F)cccc3F)cc2C1` [Example 133, 4-[2-(2,6-Difluoro-phenyl)-4,5,6,7-tetrahydro-1H-pyrrolo[3,2-c]pyridin-5-yl]-5-methyl-2-methylsulfonyl-thiazole], in that order: greater than 70% and 0.5 to 1 µM.
Consider `Cc1cc(C(F)(F)F)ncc1N1CCc2[nH]c(C3CCCOC3)cc2C1` (stereo not drawn) [Example 134, 5-[4-Methyl-6-(trifluoromethyl)-pyridin-3-yl]-2-tetrahydro-pyran-3-yl-4,5,6,7-tetrahydro-1H-pyrrolo[3,2-c]pyridine], for which the inhibition at 10 µM in assay [1] is greater than 70%. In addition, in assay [2], the IC50 lay within 1 to 5 µM.
For `Cc1cc(C)c(-c2cc3c([nH]2)CCN(c2cnc(C(F)(F)F)cc2C)C3)cn1` [Example 135, 2-(4,6-Dimethyl-pyridin-3-yl)-5-[4-methyl-6-(trifluoromethyl)-pyridin-3-yl]-4,5,6,7-tetrahydro-1H-pyrrolo[3,2-c]pyridine], in that order: less than 50% and 0.5 to 1 µM.
For `Cc1cc(S(=O)(=O)NCC(F)(F)F)ccc1N1CCc2[nH]c(-c3c(F)cccc3F)cc2C1` [Example 136, 4-[2-(2,6-Difluoro-phenyl)-4,5,6,7-tetrahydro-1H-pyrrolo[3,2-c]pyridin-5-yl]-3-methyl-N-(2,2,2-trifluoro-ethyl)-benzenesulfonic acid amide], in that order: less than 50% and 1 to 5 µM.
For `COC1(c2cc(N3CCc4[nH]c(-c5c(F)cccc5F)cc4C3)n(C)n2)CC1` [Example 137, 2-(2,6-Difluoro-phenyl)-5-[5-(1-methoxy-cyclopropyl)-2-methyl-2H-pyrazol-3-yl]-4,5,6,7-tetrahydro-1H-pyrrolo[3,2-c]pyridine], in that order: greater than 70% and 1 to 5 µM.
For `COc1cc(OC(F)F)ncc1N1CCc2[nH]c(-c3c(F)cccc3F)cc2C1` [Example 140, 5-[6-(Difluoro-methoxy)-4-methoxy-pyridin-3-yl]-2-(2,6-difluoro-phenyl)-4,5,6,7-tetrahydro-1H-pyrrolo[3,2-c]pyridine], in assay [1], the inhibition at 10 µM was greater than 70%. Also, in assay [2], the IC50 was less than 0.5 µM.
For `Cc1cc(C(F)(F)F)ncc1N1CCc2[nH]c(-c3cncc(F)c3C)cc2C1` [Example 141, 2-(5-Fluoro-4-methyl-pyridin-3-yl)-5-[4-methyl-6-(trifluoromethyl)-pyridin-3-yl]-4,5,6,7-tetrahydro-1H-pyrrolo[3,2-c]pyridine], in that order: greater than 70% and less than 0.5 µM.
For `Cc1cc(S(C)(=O)=O)ncc1N1CCc2[nH]c(-c3c(F)cccc3F)c(F)c2C1` [Example 142, 2-(2,6-Difluoro-phenyl)-3-fluoro-5-(4-methyl-6-methylsulfonyl-pyridin-3-yl)-4,5,6,7-tetrahydro-1H-pyrrolo[3,2-c]pyridine], in that order: greater than 70% and less than 0.5 µM.
`CCOc1cc(OC)c(N2CCc3[nH]c(-c4c(F)cccc4F)cc3C2)cn1` [Example 143, 2-(2,6-Difluoro-phenyl)-5-(6-ethoxy-4-methoxy-pyridin-3-yl)-4,5,6,7-tetrahydro-1H-pyrrolo[3,2-c]pyridine]: in assay [1], the inhibition at 10 µM was less than 50%. In addition, the IC50 in assay [2] fell in the range of 1 to 5 µM.

Source of the values: patent US20160151337A1, “ANNELATED PYRROLES AND THEIR USE AS CRAC INHIBITORS” (Grünenthal GmbH, priority 2013, published 2016).
